Data as given in PubChem BioAssay AID1963832 (Molecular Pharmacology Branch, DTP, NCI, 2024).

System: 885724-159-R-J1-PDC complex spheroid viability
Experiment: Anticancer human tumor 885724-159-R-J1-PDC patient-derived pancreatic adenocarcinoma cell line growth inhibition [POLQ]
Settings: for IC50: curve of first compound; for viability, T/C: stronger effect = lower value
Outline: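 Patient-derived tumour cells were co-cultured with HUVEC and mesenchymal stem cells as multicellular spheroids at 37 °C. They were treated with POLQ inhibitors (novobiocin, ART-558, RP6685) alone or combined with other agents. Top concentrations were at or near clinical Cmax (otherwise 10 microM; SN-38 at 1 microM), decreasing in half-log steps.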

[1] = second compound 0.0316 µM, first compound 0.0316 µM
[2] = second compound 0.0316 µM, first compound 0.1 µM
[3] = second compound 0.0316 µM, first compound 0.316 µM
[4] = second compound 0.0316 µM, first compound 1 µM
[5] = second compound 0.0316 µM, first compound 3.16 µM
[6] = second compound 0.0316 µM, first compound 10 µM
[7] = second compound 0.1 µM, first compound 0.0316 µM
[8] = second compound 0.1 µM, first compound 0.1 µM
[9] = second compound 0.1 µM, first compound 0.316 µM
[10] = second compound 0.1 µM, first compound 1 µM
[11] = second compound 0.1 µM, first compound 3.16 µM
[12] = second compound 0.1 µM, first compound 10 µM
[13] = second compound 0.316 µM, first compound 0.0316 µM
[14] = second compound 0.316 µM, first compound 0.1 µM
[15] = second compound 0.316 µM, first compound 0.316 µM
[16] = second compound 0.316 µM, first compound 1 µM
[17] = second compound 0.316 µM, first compound 3.16 µM
[18] = second compound 0.316 µM, first compound 10 µM
[19] = second compound 1 µM, first compound 0.0316 µM
[20] = second compound 1 µM, first compound 0.1 µM
[21] = second compound 1 µM, first compound 0.316 µM
[22] = second compound 1 µM, first compound 1 µM
[23] = second compound 1 µM, first compound 3.16 µM
[24] = second compound 1 µM, first compound 10 µM
[25] = second compound 3.16 µM, first compound 0.0316 µM
[26] = second compound 3.16 µM, first compound 0.1 µM
[27] = second compound 3.16 µM, first compound 0.316 µM
[28] = second compound 3.16 µM, first compound 1 µM
[29] = second compound 3.16 µM, first compound 3.16 µM
[30] = second compound 3.16 µM, first compound 10 µM
[31] = second compound 10 µM, first compound 0.0316 µM
[32] = second compound 10 µM, first compound 0.1 µM
[33] = second compound 10 µM, first compound 0.316 µM
[34] = second compound 10 µM, first compound 1 µM
[35] = second compound 10 µM, first compound 3.16 µM
[36] = second compound 10 µM, first compound 10 µM
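Also: spheroids exposed to compounds for 7 days.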

Q: What does the source list for `CC1COCCN1c1cc(C2(O)CC3CCC(C2)O3)c2cnn(-c3ccn[nH]3)c2n1` (stereo not drawn) + COC1C(OC(N)=O)C(O)C(Oc2ccc3c(O)c(NC(=O)c4ccc(O)c(CC=C(C)C)c4)c(=O)oc3c2C)OC1(C)C?
A: IC50 (second compound 0.0316 µM): 139 nM; IC50 (second compound 0.1 µM): 150 nM; IC50 (second compound 0.316 µM): 98.2 nM; IC50 (second compound 1 µM): 139 nM; IC50 (second compound 3.16 µM): 96 nM; IC50 (second compound 10 µM): 102 nM; viability, T/C [1]: 74.7%; viability, T/C [2]: 49.8%; viability, T/C [3]: 38.8%; viability, T/C [4]: 41.8%; viability, T/C [5]: 31.5%; viability, T/C [6]: 23.2%; viability, T/C [7]: 73.3%; viability, T/C [8]: 51.4%; viability, T/C [9]: 40%; viability, T/C [10]: 41.4%; viability, T/C [11]: 31.9%; viability, T/C [12]: 24.7%; viability, T/C [13]: 63.1%; viability, T/C [14]: 50.4%; viability, T/C [15]: 39%; viability, T/C [16]: 34.8%; viability, T/C [17]: 32.5%; viability, T/C [18]: 28.6%; viability, T/C [19]: 75.1%; viability, T/C [20]: 52%; viability, T/C [21]: 39.7%; viability, T/C [22]: 38.1%; viability, T/C [23]: 31.2%; viability, T/C [24]: 25.4%; viability, T/C [25]: 68.1%; viability, T/C [26]: 44.8%; viability, T/C [27]: 42.5%; viability, T/C [28]: 35.8%; viability, T/C [29]: 31.8%; viability, T/C [30]: 26.4%; viability, T/C [31]: 61.1%; viability, T/C [32]: 50.5%; viability, T/C [33]: 40.8%; viability, T/C [34]: 34.5%; viability, T/C [35]: 34.9%; viability, T/C [36]: 26.3%

Q: What does the source list for `CCc1cc2c(N3CCc4c(cc(Cn5ccnc5)cc4-c4cn(C)nc4C(F)(F)F)C3=O)ccnc2c(OC)n1` + COC1C(OC(N)=O)C(O)C(Oc2ccc3c(O)c(NC(=O)c4ccc(O)c(CC=C(C)C)c4)c(=O)oc3c2C)OC1(C)C?
A: IC50 (second compound 0.0316 µM): > 10000 nM; IC50 (second compound 0.1 µM): > 10000 nM; IC50 (second compound 0.316 µM): > 10000 nM; IC50 (second compound 1 µM): > 10000 nM; IC50 (second compound 3.16 µM): > 10000 nM; IC50 (second compound 10 µM): > 10000 nM; viability, T/C [1]: 90.9%; viability, T/C [2]: 76.4%; viability, T/C [3]: 75.5%; viability, T/C [4]: 75%; viability, T/C [5]: 75%; viability, T/C [6]: 70.3%; viability, T/C [7]: 86.8%; viability, T/C [8]: 82.1%; viability, T/C [9]: 80.1%; viability, T/C [10]: 82.2%; viability, T/C [11]: 76.3%; viability, T/C [12]: 68.2%; viability, T/C [13]: 89.3%; viability, T/C [14]: 86.1%; viability, T/C [15]: 72.3%; viability, T/C [16]: 70.9%; viability, T/C [17]: 75.5%; viability, T/C [18]: 64.6%; viability, T/C [19]: 85.2%; viability, T/C [20]: 86%; viability, T/C [21]: 79.5%; viability, T/C [22]: 83.1%; viability, T/C [23]: 77%; viability, T/C [24]: 59.1%; viability, T/C [25]: 87.5%; viability, T/C [26]: 80.3%; viability, T/C [27]: 79.8%; viability, T/C [28]: 72.5%; viability, T/C [29]: 75.4%; viability, T/C [30]: 69.5%; viability, T/C [31]: 80.6%; viability, T/C [32]: 76.8%; viability, T/C [33]: 76.6%; viability, T/C [34]: 80.4%; viability, T/C [35]: 79.5%; viability, T/C [36]: 64.1%

Q: What does the source list for `COc1cc2cc(C(=O)CCC(=O)O)sc2cc1OC` + COC1C(OC(N)=O)C(O)C(Oc2ccc3c(O)c(NC(=O)c4ccc(O)c(CC=C(C)C)c4)c(=O)oc3c2C)OC1(C)C?
A: IC50 (second compound 0.0316 µM): > 10000 nM; IC50 (second compound 0.1 µM): > 10000 nM; IC50 (second compound 0.316 µM): > 10000 nM; IC50 (second compound 1 µM): > 10000 nM; IC50 (second compound 3.16 µM): > 10000 nM; IC50 (second compound 10 µM): > 10000 nM; viability, T/C [1]: 96.4%; viability, T/C [2]: 97.6%; viability, T/C [3]: 100%; viability, T/C [4]: 93.6%; viability, T/C [5]: 96.8%; viability, T/C [6]: 86.2%; viability, T/C [7]: 100%; viability, T/C [8]: 96.3%; viability, T/C [9]: 102%; viability, T/C [10]: 109%; viability, T/C [11]: 109%; viability, T/C [12]: 86.6%; viability, T/C [13]: 101%; viability, T/C [14]: 101%; viability, T/C [15]: 97.2%; viability, T/C [16]: 103%; viability, T/C [17]: 113%; viability, T/C [18]: 81%; viability, T/C [19]: 109%; viability, T/C [20]: 92.5%; viability, T/C [21]: 95.6%; viability, T/C [22]: 96%; viability, T/C [23]: 104%; viability, T/C [24]: 76.2%; viability, T/C [25]: 100%; viability, T/C [26]: 96.6%; viability, T/C [27]: 95.9%; viability, T/C [28]: 101%; viability, T/C [29]: 113%; viability, T/C [30]: 79.8%; viability, T/C [31]: 96.8%; viability, T/C [32]: 105%; viability, T/C [33]: 111%; viability, T/C [34]: 93.4%; viability, T/C [35]: 87.5%; viability, T/C [36]: 83.4%

Q: Which IC50 (second compound 0.0316 µM) does the source give for `COc1cccc2c1C(=O)c1c(O)c3c(c(O)c1C2=O)CC(O)(C(=O)CO)CC3OC1CC(N)C(O)C(C)O1` (stereo not drawn) + Cc1cccc(N(C)C(=O)C2C(O)CCN2c2nc(C)cc(C(F)(F)F)c2C#N)c1 here?
A: 142 nM

Q: And the IC50 (second compound 0.1 µM)?
A: 140 nM

Q: And the IC50 (second compound 0.316 µM)?
A: 139 nM

Q: What about the IC50 (second compound 1 µM) of the same molecule?
A: 112 nM

Q: And the IC50 (second compound 3.16 µM)?
A: 117 nM

Q: What about the IC50 (second compound 10 µM) of the same molecule?
A: 124 nM

Q: And the viability, T/C [1]?
A: 72.8%

Q: What about the viability, T/C [2] of the same molecule?
A: 57.1%

Q: And the viability, T/C [3]?
A: 32.5%

Q: What about the viability, T/C [4] of the same molecule?
A: 11.3%

Q: And the viability, T/C [5]?
A: 5.41%

Q: And the viability, T/C [6]?
A: 6.51%

Q: What about the viability, T/C [7] of the same molecule?
A: 67.6%

Q: And the viability, T/C [8]?
A: 55.5%

Q: What about the viability, T/C [9] of the same molecule?
A: 34.5%

Q: What about the viability, T/C [10] of the same molecule?
A: 11.9%

Q: And the viability, T/C [11]?
A: 5.56%

Q: And the viability, T/C [12]?
A: 8.59%

Q: And the viability, T/C [13]?
A: 80.8%

Q: And the viability, T/C [14]?
A: 57.1%

Q: And the viability, T/C [15]?
A: 31%

Q: What about the viability, T/C [16] of the same molecule?
A: 8.3%

Q: And the viability, T/C [17]?
A: 5.71%

Q: And the viability, T/C [18]?
A: 9.04%

Q: And the viability, T/C [19]?
A: 75.3%

Q: What about the viability, T/C [20] of the same molecule?
A: 51%

Q: And the viability, T/C [21]?
A: 30.4%

Q: What about the viability, T/C [22] of the same molecule?
A: 10.5%

Q: And the viability, T/C [23]?
A: 5.49%

Q: And the viability, T/C [24]?
A: 6.59%

Q: And the viability, T/C [25]?
A: 75.5%

Q: And the viability, T/C [26]?
A: 51.7%

Q: What about the viability, T/C [27] of the same molecule?
A: 30.3%

Q: And the viability, T/C [28]?
A: 5.5%

Q: And the viability, T/C [29]?
A: 6.53%

Q: What about the viability, T/C [30] of the same molecule?
A: 6.91%

Q: What about the viability, T/C [31] of the same molecule?
A: 72.7%

Q: And the viability, T/C [32]?
A: 55.6%

Q: And the viability, T/C [33]?
A: 22.9%

Q: What about the viability, T/C [34] of the same molecule?
A: 2.58%

Q: And the viability, T/C [35]?
A: 4.96%

Q: What about the viability, T/C [36] of the same molecule?
A: 6.82%
